Data published in ChEMBL document CHEMBL5154874, “Discovery of novel dual RAGE/SERT inhibitors for the potential treatment of the comorbidity of Alzheimer's disease and depression” (Eur J Med Chem, 2022).
Activity calls are given as the source filed them. The calls are words filed in the database; no cut-off is given here.

Assays:
SH-SY5Y [1] = experiment: Cytotoxicity against human SH-SY5Y cells assessed as reduction in cell viability at 10 to 20 uM incubated for 24 hrs by MTT assay; format: toxicity, cell-based; conditions: dose 10-20 µM
SH-SY5Y [2] = experiment: Cytotoxicity against human SH-SY5Y cells assessed as cell death at 5 uM incubated for 24 hrs by MTT assay; format: toxicity, cell-based
[3] = target: Advanced glycosylation end product-specific receptor (Homo sapiens, UniProt Q15109); experiment: Inhibition of biotinylated human RAGE/amyloid beta interaction incubated for 120 mins by ELISA assay
[4] = target: Sodium-dependent serotonin transporter (Homo sapiens, UniProt P31645)
CYP1A2 = target: T1, CYP1A2 (Homo sapiens, UniProt P05177); experiment: Inhibition of CYP1A2 in human liver microsomes at 10 uM incubated for 10 mins in presence of NADPH by LC-MS/MS analysis relative to control; format: ADME, Microsome
T1 sequence (P05177 whole entry): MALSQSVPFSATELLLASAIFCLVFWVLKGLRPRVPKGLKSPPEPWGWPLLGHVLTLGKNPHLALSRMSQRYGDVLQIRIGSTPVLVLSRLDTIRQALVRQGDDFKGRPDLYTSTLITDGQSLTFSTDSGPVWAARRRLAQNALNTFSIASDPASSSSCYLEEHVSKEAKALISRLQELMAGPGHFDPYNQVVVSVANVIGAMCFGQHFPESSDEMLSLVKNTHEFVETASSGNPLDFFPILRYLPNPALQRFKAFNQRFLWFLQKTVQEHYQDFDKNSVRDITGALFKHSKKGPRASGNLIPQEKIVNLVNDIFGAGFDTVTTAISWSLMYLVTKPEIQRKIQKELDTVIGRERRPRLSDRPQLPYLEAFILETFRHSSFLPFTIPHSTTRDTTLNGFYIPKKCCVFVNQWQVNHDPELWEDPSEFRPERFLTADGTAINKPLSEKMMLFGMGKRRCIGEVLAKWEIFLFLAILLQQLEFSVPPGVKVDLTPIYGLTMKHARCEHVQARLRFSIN

[5] = Metabolic stability in mouse liver microsomes assessed as clearance at 100 uM in presence of NADPH and measured for 5 to 60 mins by LC-MS/MS analysis; format: ADME, Microsome; conditions: time 5-60 min, read-out: CLH
[6] = Toxicity in ICR mouse assessed as change in brain to body weight ratio at 100 mg/kg, ip administered as single dose and measured after 2 weeks; format: organism-based; conditions: in vivo, 336 h
CYP2C19 = CYP2C19 (Homo sapiens, UniProt P33261); experiment: Inhibition of CYP2C19 in human liver microsomes at 10 uM incubated for 10 mins in presence of NADPH by LC-MS/MS analysis relative to control; format: ADME, Microsome
[7] = Toxicity in ICR mouse assessed as change in spleen to body weight ratio at 100 mg/kg, ip administered as single dose and measured after 2 weeks; format: organism-based; conditions: in vivo, 336 h
[8] = Toxicity in ICR mouse assessed as change in kidney to body weight ratio at 100 mg/kg, ip administered as single dose and measured after 2 weeks; format: organism-based; conditions: in vivo, 336 h
[9] = Cmax in mouse at 60 mg/kg, po measured for 0.25 to 24 hrs; format: ADME, organism-based; parameters: time 0.25-24 hrs, dose 60 mg/kg, route po; conditions: in vivo
[10] = Toxicity in ICR mouse assessed as change in heart to body weight ratio at 100 mg/kg, ip administered as single dose and measured after 2 weeks; format: organism-based; conditions: in vivo, 336 h
[11] = target: Voltage-gated inwardly rectifying potassium channel KCNH2 (Homo sapiens, UniProt Q12809); experiment: Inhibition of hERG transfected in CHO cells by manual patch-clamp assay; format: toxicity, cell-based
[12] = Cytotoxicity against human SH-SY5Y cells assessed as cell viability at 20 uM incubated for 24 hrs by MTT assay relative to control; format: toxicity, cell-based; conditions: read-out: Activity
[13] = Metabolic stability in mouse liver microsomes assessed as half life at 100 uM in presence of NADPH and measured for 5 to 60 mins by LC-MS/MS analysis; format: ADME, Microsome; conditions: time 5-60 min
[14] = Toxicity in ICR mouse assessed as change in lungs to body weight ratio at 100 mg/kg, ip administered as single dose and measured after 2 weeks; format: organism-based; conditions: in vivo, 336 h
[15] = Clearance in mouse at 10 mg/kg, iv measured for 0.083 to 24 hrs; format: ADME, organism-based; conditions: in vivo, time 0.083-24 hrs
CYP2C9 = CYP2C9 (Homo sapiens, UniProt P11712); experiment: Inhibition of CYP2C9 in human liver microsomes at 10 uM incubated for 10 mins in presence of NADPH by LC-MS/MS analysis relative to control; format: ADME, Microsome
[16] = Oral bioavailability in mouse at 60 mg/kg measured for 0.25 to 24 hrs; format: ADME, organism-based; conditions: in vivo, time 0.25-24 hrs
[17] = Half life in mouse at 60 mg/kg, po measured for 0.25 to 24 hrs; format: ADME, organism-based; conditions: in vivo, time 0.25-24 hrs
[18] = Volume of distribution at steady state in mouse at 10 mg/kg, iv measured for 0.083 to 24 hrs; format: ADME, organism-based; conditions: in vivo, time 0.083-24 hrs, read-out: Vdss
[19] = Toxicity in ICR mouse assessed as change in liver to body weight ratio at 100 mg/kg, ip administered as single dose and measured after 2 weeks; format: organism-based; conditions: in vivo, 336 h
CYP3A4 = CYP3A4 (Homo sapiens, UniProt P08684); experiment: Inhibition of CYP3A4 in human liver microsomes at 10 uM incubated for 10 mins in presence of NADPH by LC-MS/MS analysis relative to control; format: ADME, Microsome
[20] = Half life in mouse at 10 mg/kg, iv measured for 0.083 to 24 hrs; format: ADME, organism-based; conditions: in vivo, time 0.083-24 hrs
SH-SY5Y [21] = experiment: Cytotoxicity against human SH-SY5Y cells assessed as effect on cell viability at 1 to 10 uM incubated for 24 hrs by MTT assay; format: toxicity, cell-based; conditions: dose 1-10 µM
[22] = Toxicity in ICR mouse assessed as animal survival at 100 mg/kg, ip administered as single dose measured upto 2 weeks; format: organism-based; conditions: in vivo
Mus musculus [23] = experiment: Anti-depressant activity in ICR mouse assessed as reduction in immobility time at 60 mg/kg, po measured after 1 hr post treatment by tail suspension test; format: functional, organism-based
[24] = AUC (0 to infinity) in mouse at 10 mg/kg, iv measured for 0.083 to 24 hrs; format: ADME, organism-based; parameters: dose 10 mg/kg, time 0.083-24 hrs, route iv; conditions: in vivo
[25] = Cmax in mouse at 10 mg/kg, iv measured for 0.083 to 24 hrs; format: ADME, organism-based; parameters: time lower 0.083 hrs, dose 10 mg/kg, time upper 24 hrs, route iv; conditions: in vivo
[26] = AUC (0 to infinity) in mouse at 60 mg/kg, po measured for 0.25 to 24 hrs; format: ADME, organism-based; parameters: time lower 0.25 hrs, dose 60 mg/kg, time upper 24 hrs, route po; conditions: in vivo
[27] = Toxicity in ICR mouse assessed as animal survival at 200 mg/kg, ip administered as single dose measured upto 2 weeks; format: organism-based; conditions: in vivo, 336 h
Mus musculus [28] = experiment: Anti-depressant activity in ICR mouse assessed as reduction in immobility time at 30 mg/kg, po measured after 1 hr post treatment by tail suspension test; format: functional, organism-based
[29] = Metabolic stability in mouse liver microsomes assessed as parent compound remaining in presence of NADPH and measured after 60 mins by LC-MS/MS analysis
[30] = Cytotoxicity against human SH-SY5Y cells assessed as cell viability at 5 uM incubated for 24 hrs by MTT assay relative to control; format: toxicity, cell-based; conditions: read-out: Activity

Sequence of Advanced glycosylation end product-specific receptor (Q15109 whole entry): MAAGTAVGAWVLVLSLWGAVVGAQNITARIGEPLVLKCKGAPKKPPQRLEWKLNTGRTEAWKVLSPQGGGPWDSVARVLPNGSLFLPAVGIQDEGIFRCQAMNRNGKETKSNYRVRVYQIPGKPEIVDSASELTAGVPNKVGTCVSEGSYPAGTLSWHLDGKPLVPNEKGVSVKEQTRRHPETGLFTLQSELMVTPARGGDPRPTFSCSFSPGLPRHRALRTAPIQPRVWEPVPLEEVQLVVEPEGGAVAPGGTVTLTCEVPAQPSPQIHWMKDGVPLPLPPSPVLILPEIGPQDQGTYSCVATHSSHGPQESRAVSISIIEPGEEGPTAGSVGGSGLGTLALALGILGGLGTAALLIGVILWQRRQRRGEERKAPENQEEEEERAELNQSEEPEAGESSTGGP
Sequence of CYP2C9 (P11712 whole entry): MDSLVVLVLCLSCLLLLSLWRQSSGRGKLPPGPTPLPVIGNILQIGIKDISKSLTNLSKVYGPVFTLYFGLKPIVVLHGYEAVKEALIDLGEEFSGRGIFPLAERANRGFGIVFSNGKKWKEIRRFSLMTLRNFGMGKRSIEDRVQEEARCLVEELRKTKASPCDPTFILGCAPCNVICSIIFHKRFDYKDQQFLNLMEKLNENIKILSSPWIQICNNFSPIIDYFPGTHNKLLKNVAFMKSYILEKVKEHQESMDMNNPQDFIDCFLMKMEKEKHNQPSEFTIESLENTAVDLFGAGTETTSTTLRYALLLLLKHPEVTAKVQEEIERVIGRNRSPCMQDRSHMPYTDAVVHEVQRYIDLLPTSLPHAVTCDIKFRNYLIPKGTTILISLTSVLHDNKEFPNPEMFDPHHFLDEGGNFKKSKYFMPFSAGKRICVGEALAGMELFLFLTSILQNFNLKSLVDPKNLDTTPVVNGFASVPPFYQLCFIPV
Sequence of Sodium-dependent serotonin transporter (P31645 whole entry): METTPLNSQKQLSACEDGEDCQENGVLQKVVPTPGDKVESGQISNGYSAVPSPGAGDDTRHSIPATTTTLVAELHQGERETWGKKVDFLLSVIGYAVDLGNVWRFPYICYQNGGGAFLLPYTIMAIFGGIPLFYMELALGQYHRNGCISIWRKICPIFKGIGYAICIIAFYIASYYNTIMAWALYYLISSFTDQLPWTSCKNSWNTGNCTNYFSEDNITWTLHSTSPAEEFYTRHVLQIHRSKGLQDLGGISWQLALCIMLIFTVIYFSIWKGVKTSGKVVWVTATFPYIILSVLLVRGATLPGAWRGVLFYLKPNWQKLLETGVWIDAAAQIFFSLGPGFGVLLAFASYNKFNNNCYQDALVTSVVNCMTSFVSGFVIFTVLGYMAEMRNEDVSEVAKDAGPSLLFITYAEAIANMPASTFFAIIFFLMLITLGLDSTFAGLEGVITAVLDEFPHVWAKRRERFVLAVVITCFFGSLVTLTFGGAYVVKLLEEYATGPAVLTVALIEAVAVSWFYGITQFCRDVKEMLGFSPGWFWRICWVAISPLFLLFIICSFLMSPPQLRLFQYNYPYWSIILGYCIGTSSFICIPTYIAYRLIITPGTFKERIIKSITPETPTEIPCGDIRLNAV
Sequence of CYP3A4 (P08684 whole entry): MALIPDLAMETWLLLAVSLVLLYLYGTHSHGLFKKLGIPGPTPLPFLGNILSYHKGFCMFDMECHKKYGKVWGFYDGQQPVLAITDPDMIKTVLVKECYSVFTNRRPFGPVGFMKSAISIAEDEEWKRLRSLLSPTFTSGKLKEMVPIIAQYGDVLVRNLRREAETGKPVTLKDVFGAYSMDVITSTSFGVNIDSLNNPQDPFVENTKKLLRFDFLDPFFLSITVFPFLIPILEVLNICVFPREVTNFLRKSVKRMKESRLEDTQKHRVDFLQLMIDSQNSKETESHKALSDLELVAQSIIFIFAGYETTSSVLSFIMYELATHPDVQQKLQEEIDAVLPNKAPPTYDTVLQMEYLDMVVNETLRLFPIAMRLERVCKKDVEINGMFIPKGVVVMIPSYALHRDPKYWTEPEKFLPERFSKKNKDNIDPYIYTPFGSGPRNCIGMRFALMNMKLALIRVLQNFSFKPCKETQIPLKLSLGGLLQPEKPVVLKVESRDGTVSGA
Sequence of CYP2C19 (P33261 whole entry): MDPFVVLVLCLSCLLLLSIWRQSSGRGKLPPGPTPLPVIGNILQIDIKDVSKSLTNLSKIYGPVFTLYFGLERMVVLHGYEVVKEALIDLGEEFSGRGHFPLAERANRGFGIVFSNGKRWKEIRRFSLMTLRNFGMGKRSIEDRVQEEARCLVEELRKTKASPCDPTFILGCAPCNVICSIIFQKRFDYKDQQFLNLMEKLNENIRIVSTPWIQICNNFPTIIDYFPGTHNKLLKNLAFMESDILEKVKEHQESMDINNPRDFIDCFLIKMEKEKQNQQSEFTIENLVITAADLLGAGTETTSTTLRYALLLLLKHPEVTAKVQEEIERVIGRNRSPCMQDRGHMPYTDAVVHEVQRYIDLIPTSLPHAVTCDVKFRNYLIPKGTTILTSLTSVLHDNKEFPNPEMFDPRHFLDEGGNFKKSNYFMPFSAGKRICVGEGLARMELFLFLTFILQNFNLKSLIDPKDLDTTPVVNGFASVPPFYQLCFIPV
Sequence of Voltage-gated inwardly rectifying potassium channel KCNH2 (Q12809 whole entry): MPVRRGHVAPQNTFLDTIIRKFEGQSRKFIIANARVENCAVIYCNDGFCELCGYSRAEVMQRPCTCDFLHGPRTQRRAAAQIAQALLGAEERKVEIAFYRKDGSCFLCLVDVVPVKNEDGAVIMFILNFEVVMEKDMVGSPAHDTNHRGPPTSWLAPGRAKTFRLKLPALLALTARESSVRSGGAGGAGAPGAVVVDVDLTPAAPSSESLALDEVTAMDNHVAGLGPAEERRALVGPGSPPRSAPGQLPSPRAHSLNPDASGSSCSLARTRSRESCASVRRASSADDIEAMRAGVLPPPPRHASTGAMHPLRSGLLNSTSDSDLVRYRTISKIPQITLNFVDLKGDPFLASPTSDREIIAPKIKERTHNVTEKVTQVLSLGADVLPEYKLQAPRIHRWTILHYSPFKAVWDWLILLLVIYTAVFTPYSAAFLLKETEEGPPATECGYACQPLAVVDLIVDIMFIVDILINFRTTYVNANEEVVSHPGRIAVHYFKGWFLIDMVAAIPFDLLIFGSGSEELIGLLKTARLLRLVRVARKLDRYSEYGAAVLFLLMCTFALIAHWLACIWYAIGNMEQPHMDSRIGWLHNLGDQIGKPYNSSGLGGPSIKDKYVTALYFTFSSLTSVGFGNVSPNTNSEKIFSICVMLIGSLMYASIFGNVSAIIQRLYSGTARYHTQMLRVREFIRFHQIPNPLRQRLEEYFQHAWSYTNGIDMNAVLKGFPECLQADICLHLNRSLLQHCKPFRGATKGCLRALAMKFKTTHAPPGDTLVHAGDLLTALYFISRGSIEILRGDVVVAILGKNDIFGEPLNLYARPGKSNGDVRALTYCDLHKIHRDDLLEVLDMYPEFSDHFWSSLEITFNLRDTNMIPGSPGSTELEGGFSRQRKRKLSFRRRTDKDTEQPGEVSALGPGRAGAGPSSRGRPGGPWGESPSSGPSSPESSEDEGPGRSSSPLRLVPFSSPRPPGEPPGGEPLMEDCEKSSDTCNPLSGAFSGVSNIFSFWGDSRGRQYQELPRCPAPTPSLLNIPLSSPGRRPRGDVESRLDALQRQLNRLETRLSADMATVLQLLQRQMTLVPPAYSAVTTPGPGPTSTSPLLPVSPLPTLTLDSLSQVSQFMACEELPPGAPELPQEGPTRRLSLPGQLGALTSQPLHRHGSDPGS

CCc1nc(C2CCN(CCCCc3c[nH]c4ccc(C#N)cc34)CC2)cn1-c1ccc(Oc2ccc(Cl)cc2)cc1
Activity (SH-SY5Y [1]): Toxic | Activity (SH-SY5Y [2]): Toxic

CCCCc1sc(C2CCN(CCc3c[nH]c4ccc(C#N)cc34)CC2)nc1-c1ccc(Oc2ccc(Cl)cc2)cc1
IC50 [3]: > 20 µM | IC50 [4]: > 0.1 µM

CCN(CC)CCOc1cccc(Nc2nc(-c3ccc(Cl)cc3)cc(-c3ccc(Cl)cc3)n2)c1
IC50 [3]: 10.5 µM

CCCCc1nc(C2CCN(Cc3c[nH]c4ccc(C#N)cc34)CC2)cn1-c1ccc(Oc2ccc(Cl)cc2)cc1
Activity (SH-SY5Y [1]): Toxic | Activity (SH-SY5Y [2]): Toxic

CCCCc1sc(C2CCN(CCCCc3cn(C)c4ccc(C#N)cc34)CC2)nc1-c1ccc(Oc2ccc(Cl)cc2)cc1
inhibition at 10 min, 10 µM (CYP1A2): 17.2% | microsomal CLint at 100 µM [5]: 17.6 µL/min/mg | Activity [6]: Non-Toxic | inhibition at 10 min, 10 µM (CYP2C19): 23.7% | Activity [7]: Non-Toxic | Activity [8]: Non-Toxic | Cmax [9]: 4940 ng/mL | Activity [10]: Non-Toxic | IC50 [11]: 7.2 µM | viability at 24 h, 20 µM [12]: > 80% | half-life at 100 µM [13]: 1.31 h | Activity [14]: Non-Toxic | clearance [15]: 7.09 mL/min/kg | inhibition at 10 min, 10 µM (CYP2C9): 8.6% | bioavailability [16]: 17.1% | half-life [17]: 5.55 h | Vd [18]: 1.04 L/kg | Activity [19]: Non-Toxic | inhibition at 10 min, 10 µM (CYP3A4): 16.3% | half-life [20]: 3.46 h | Activity (SH-SY5Y [21]): Non-Toxic | survival at 336 h [22]: 100% | Activity (Mus musculus [23]): Active | AUC(0-inf) [24]: 23700 ng·h/mL | Cmax [25]: 51700 ng/mL | AUC(0-inf) [26]: 24700 ng·h/mL | Activity [27]: Toxic

CCCCc1nc(C2CCN(CCc3c[nH]c4ccc(C#N)cc34)CC2)cn1-c1ccc(Oc2ccc(Cl)cc2)cc1
IC50 [3]: > 20 µM | IC50 [4]: > 0.1 µM

CCCCCc1nc(C2CCN(CCCCc3cn(C)c4ccc(C#N)cc34)CC2)cn1-c1ccc(Oc2ccc(Cl)cc2)cc1
Activity (SH-SY5Y [1]): Toxic | Activity (SH-SY5Y [2]): Toxic

CCCCc1sc(C2CCN(CCCCc3c[nH]c4ccc(C#N)cc34)CC2)nc1-c1ccc(Oc2ccc(Cl)cc2)cc1
Activity (SH-SY5Y [1]): Toxic | Activity (SH-SY5Y [2]): Non-Toxic

N#Cc1ccc2[nH]cc(CCCCN3CCC(c4cn(-c5ccc(Oc6ccc(Cl)cc6)cc5)c(C5CCC5)n4)CC3)c2c1
Activity (SH-SY5Y [1]): Toxic | Activity (SH-SY5Y [2]): Toxic

N#Cc1ccc2[nH]cc(CCCCN3CCN(c4ccc5oc(C(N)=O)cc5c4)CC3)c2c1 [VILAZODONE]
inhibition at 10 min, 10 µM (CYP1A2): 14.4% | microsomal CLint at 100 µM [5]: 49.3 µL/min/mg | inhibition at 10 min, 10 µM (CYP2C19): 51.3% | Activity (Mus musculus [28]): Active | half-life at 100 µM [13]: 0.468 h | inhibition at 10 min, 10 µM (CYP2C9): 49.2% | IC50 [3]: > 200 µM | inhibition at 10 min, 10 µM (CYP3A4): 29%

C[C@]12CC[C@H]3[C@@H](CCC4=CC(=O)CC[C@@]43C)[C@@H]1CC[C@@H]2O [TESTOSTERONE]
remaining at 1 h [29]: 2.2%

CCCCc1nc(-c2ccc(OCCCN(CC)CC)cc2)cn1-c1ccc(Oc2ccc(Cl)cc2)cc1 [AZELIRAGON]
inhibition at 10 min, 10 µM (CYP1A2): 0% | microsomal CLint at 100 µM [5]: 14.9 µL/min/mg | inhibition at 10 min, 10 µM (CYP2C19): 7.9% | IC50 [11]: < 1 µM | half-life at 100 µM [13]: 1.55 h | Activity (SH-SY5Y [2]): Toxic | inhibition at 10 min, 10 µM (CYP2C9): 3.7% | inhibition at 10 min, 10 µM (CYP3A4): 0% | IC50 [4]: > 3 µM

CCCCc1nc(C2CCN(CCCCc3c[nH]c4ccc(C#N)cc34)CC2)cn1-c1ccc(Oc2ccc(Cl)cc2)cc1
viability at 24 h, 5 µM [30]: 4.82% | Activity (SH-SY5Y [1]): Toxic | Activity (SH-SY5Y [2]): Toxic

CCCc1nc(C2CCN(CCCCc3c[nH]c4ccc(C#N)cc34)CC2)cn1-c1ccc(Oc2ccc(Cl)cc2)cc1
Activity (SH-SY5Y [1]): Toxic | Activity (SH-SY5Y [2]): Toxic
